From patent US11103582B2, “Method to achieve extended expression of DNA infused into liver” (IMMUSOFT CORPORATION, priority 2012, dated 2021)

System: Kupffer cells
Conditions: Dog #17: dexamethasone 1 mg/kg days −1, 0, 2, 4 then twice weekly + cyclophosphamide 10 mg/kg day 0 then weekly; no GdCl3; pKT2/CLP-cSEAP//PGK-SB100x into LHV
Protocol: Infusions of pKT2/clp-cSEAP//PGK-SB100x (FIG. 2) into the left hepatic vein were carried out as described in the text, collecting plasma samples before, during and after the infusion procedure and assaying for heat stable alkaline phosphatase activity.

O=P1(N(CCCl)CCCl)NCCCO1 (centres unmarked) [Cyclophosphamide]
Time after which cSEAP expression was extinguished: about 4 weeks

C[C@@H]1C[C@H]2[C@@H]3CCC4=CC(=O)C=C[C@]4(C)[C@@]3(F)[C@@H](O)C[C@]2(C)[C@@]1(O)C(=O)CO [Dexamethasone]
Time after which cSEAP expression was extinguished: about 4 weeks
